Test results reported in patent US12398140B2, “Substituted pyrrolo [2,3-d]pyrimidines for treating familial dysautonomia” (PTC THERAPEUTICS, INC., priority 2019, dated 2025).
Where a name gives a salt, the structure may show the parent alone.

Tested on: Elongator complex protein 1 (ELPI, also referred to as IKBKAP)
Experiment: IKBKAP-HTRF assay (IKBKAP protein in lysates of FD patient-derived fibroblasts)
Assay type: cell-based, human
Conditions: FD patient-derived fibroblasts GM04589, 48 hours, 7-point concentration curve
Experimental: The assay is used for the quantitative determination of Elongator complex protein 1 (ELPI, also referred to as IKBKAP) concentration in cell lysates using the HTRF® (Homogeneous Time-Resolved Fluorescence) technology. IKBKAP is detected in a sandwich HTRF assay by use of an anti-IKAP antibody labeled with a donor and an anti-IKAP antibody labeled with an acceptor.
Cells were thawed and incubated in DMEM-10% FBS for 72 hours. Cells were trypsinized, counted, and re-suspended to a concentration of 50,000 cells/ml in DMEM-10% FBS. A 199 μL aliquot of the cell suspensions were plated at 10,000 cells per well in a 96 well microtiter plate and incubated for 3 to 5 hours. […] Test compounds were serially diluted 3.16-fold in 100% DMSO to generate a 7-point concentration curve. A 1 μL aliquot of 200× compound solution was transferred to cell-containing wells, and cells were incubated for 48 hours in a cell culture incubator (37° C., 5% CO2, 100% relative humidity). Triplicate samples were set up for each compound concentration. After 48 hours, the supernatant was removed from the cells and 50 μL of the 1×LB4 lysis buffer, containing protease inhibitors, was added to the cells and incubated with shaking at room temperature for 1 hour. A 36 μL aliquot of this lysate was subsequently transferred to the 384-well plate containing 4 μL of the antibody solution (1:50 dilution of anti IKAP d2 and anti-IKAP K(9+8) in detection buffer). The 384-well plate was then centrifuged for 1 minute to bring the solutions to the bottom of the plate and incubated overnight at 4° C. Fluorescence for each well of the plate at 665 nm and 620 nm was measured was on the EnVision plate reader (Perkin Elmer). The ΔF for each sample is calculated by:
[formula] wherein Signal is the normalized fluorescence for each sample well and Blank is the average normalized average fluorescence for the Blank control wells.
The maximum fold increase (MFI) in IKBKAP protein abundance for compounds of Formula (I) or a form thereof relative to the vehicle control are provided in Table 1. MFI was calculated by dividing the ΔF value for each sample well by the sample ΔF for the vehicle control wells.
The EC2x for IKBKAP protein expression obtained from the 7-point concentration curve generated for each test compound according to the protocol in Biological Example 1 are also provided in Table 1. The term “EC2x for IKBKAP protein expression” is defined as the concentration of test compound that is effective in producing two times the amount of IKBKAP protein in a FD patient cell compared to the amount produced from the DMSO vehicle control.

Structure (SMILES) | EC2x for IKBKAP protein expression (concentration producing two times the amount of IKBKAP protein vs DMSO vehicle control) | MFI (maximum fold increase in IKBKAP protein abundance relative to the vehicle control)
C[C@H](N)Cc1[nH]c2nc(Cl)nc(NCc3ccccn3)c2c1F.Cl.Cl [Cpd 54, 6-[(2S)-2-aminopropyl]-2-chloro-5-fluoro-N-[(pyridin-2-yl)methyl]-7H-pyrrolo[2,3-d]pyrimidin-4-amine dihydrochloride] | *** (between >0.02 μM and ≤0.5 μM is indicated by three stars (***)) | ** (between >1.9 and ≤2.9 is indicated by two stars (**))
CNCCc1[nH]c2nc(Cl)nc(NCc3ccco3)c2c1Br [Cpd 18, 5-bromo-2-chloro-N-(furan-2-yl)methyl]-6-[2-(methylamino)ethyl]-7H-pyrrolo[2,3-d]pyrimidin-4-amine hydrochloride] | *** (between >0.02 μM and ≤0.5 μM is indicated by three stars (***)) | **** (between >3.9 and ≤4.9 is indicated by four stars (****))
C[C@H](N)Cc1[nH]c2nc(Cl)nc(NCc3ccco3)c2c1Cl.Cl [Cpd 13, 6-[(2S)-2-aminopropyl]-2,5-dichloro-N-[(furan-2-yl)methyl]-7H-pyrrolo[2,3-d]pyrimidin-4-amine hydrochloride] | ***** (≤0.005 μM is indicated by five stars (*****)) | ***** (>4.9 is indicated by five stars (*****))
C[C@H](N)Cc1c(F)c2c(NCc3cccnc3)nc(Cl)nc2n1C.Cl.Cl [Cpd 57, 6-[(2S)-2-aminopropyl]-2-chloro-5-fluoro-7-methyl-N-[(pyridin-3-yl)methyl]-7H-pyrrolo[2,3-d]pyrimidin-4-amine dihydrochloride] | * (An EC2x>1 μM is indicated by one star (*)) | * (An MFI≤1.9 is indicated by one star (*))
CC[C@H](C)[C@H](N)Cc1cc2c(NCc3ccco3)nc(Cl)nc2[nH]1.Cl [Cpd 32, 6-[(2R,3S)-2-amino-3-methylpentyl]-2-chloro-N-[(furan-2-yl)methyl]-7H-pyrrolo[2,3-d]pyrimidin-4-amine hydrochloride] | **** (between >0.005 μM and ≤0.02 μM is indicated by four stars (****)) | ***** (>4.9 is indicated by five stars (*****))
C[C@H](N)Cc1[nH]c2nc(Cl)nc(NCc3ccccc3F)c2c1F.Cl [Cpd 52, 6-[(2S)-2-aminopropyl]-2-chloro-5-fluoro-N-[(2-fluorophenyl)methyl]-7H-pyrrolo[2,3-d]pyrimidin-4-amine hydrochloride] | *** (between >0.02 μM and ≤0.5 μM is indicated by three stars (***)) | **** (between >3.9 and ≤4.9 is indicated by four stars (****))
C[C@H](N)Cc1cc2c(NCc3cscn3)nc(Cl)nc2[nH]1 [Cpd 61, 6-[(2S)-2-aminopropyl]-2-chloro-N-[(1,3-thiazol-4-yl)methyl]-7H-pyrrolo[2,3-d]pyrimidin-4-amine] | * (An EC2x>1 μM is indicated by one star (*)) | * (An MFI≤1.9 is indicated by one star (*))
C[C@H](N)Cc1cc2c(NCc3ccncc3F)nc(Cl)nc2[nH]1.Cl.Cl [Cpd 31, 6-[(2S)-2-aminopropyl]-2-chloro-N-[(3-fluoropyridin-4-yl)methyl]-7H-pyrrolo[2,3-d]pyrimidin-4-amine dihydrochloride] | **** (between >0.005 μM and ≤0.02 μM is indicated by four stars (****)) | ***** (>4.9 is indicated by five stars (*****))
C[C@H](N)Cc1[nH]c2nc(Br)nc(NCc3ccco3)c2c1F [Cpd 62, 6-[(2S)-2-aminopropyl]-2-bromo-5-fluoro-N-[(furan-2-yl)methyl]-7H-pyrrolo[2,3-d]pyrimidin-4-amine] | **** (between >0.005 μM and ≤0.02 μM is indicated by four stars (****)) | ***** (>4.9 is indicated by five stars (*****))
CC(C)[C@H](N)Cc1cc2c(NCc3ccco3)nc(Cl)nc2[nH]1.Cl [Cpd 11, 6-[(2R)-2-amino-3-methylbutyl]-2-chloro-N-[(furan-2-yl)methyl]-7H-pyrrolo[2,3-d]pyrimidin-4-amine hydrochloride] | *** (between >0.02 μM and ≤0.5 μM is indicated by three stars (***)) | **** (between >3.9 and ≤4.9 is indicated by four stars (****))
Cl.Cn1c(C[C@@H](N)CO)c(F)c2c(NCc3ccco3)nc(Cl)nc21 [Cpd 39, (2R)-2-amino-3-(2-chloro-5-fluoro-4-{[(furan-2-yl)methyl]amino}-7-methyl-7H-pyrrolo[2,3-d]pyrimidin-6-yl)propan-1-ol hydrochloride] | **** (between >0.005 μM and ≤0.02 μM is indicated by four stars (****)) | ***** (>4.9 is indicated by five stars (*****))
C[C@H](N)Cc1c(F)c2c(NCc3cncs3)nc(Cl)nc2n1C.Cl.Cl [Cpd 48, 6-[(2S)-2-aminopropyl]-2-chloro-5-fluoro-7-methyl-N-[(1,3-thiazol-5-yl)methyl]-7H-pyrrolo[2,3-d]pyrimidin-4-amine dihydrochloride] | * (An EC2x>1 μM is indicated by one star (*)) | * (An MFI≤1.9 is indicated by one star (*))
CNCCc1[nH]c2nc(Cl)nc(NCc3ccco3)c2c1F.Cl [Cpd 6, 2-chloro-5-fluoro-N-[(furan-2-yl)methyl]-6-[2-(methylamino)ethyl]-7H-pyrrolo[2,3-d]pyrimidin-4-amine hydrochloride] | *** (between >0.02 μM and ≤0.5 μM is indicated by three stars (***)) | ***** (>4.9 is indicated by five stars (*****))
CC[C@H](N)Cc1[nH]c2nc(Cl)nc(NCc3nccs3)c2c1F.Cl [Cpd 59, 6-[(2S)-2-aminobutyl]-2-chloro-5-fluoro-N-[(1,3-thiazol-2-yl)methyl]-7H-pyrrolo[2,3-d]pyrimidin-4-amine hydrochloride] | *** (between >0.02 μM and ≤0.5 μM is indicated by three stars (***)) | ***** (>4.9 is indicated by five stars (*****))
C[C@H](N)Cc1[nH]c2nc(Cl)nc(NCc3ccccc3)c2c1F.Cl [Cpd 50, 6-[(2S)-2-aminopropyl]-N-benzyl-2-chloro-5-fluoro-7H-pyrrolo[2,3-d]pyrimidin-4-amine hydrochloride] | *** (between >0.02 μM and ≤0.5 μM is indicated by three stars (***)) | *** (between >2.9 and ≤3.9 is indicated by three stars (***))
Cl.NCCCc1[nH]c2nc(Cl)nc(NCc3ccco3)c2c1F [Cpd 2, 6-(3-aminopropyl)-2-chloro-5-fluoro-N-[(furan-2-yl)methyl]-7H-pyrrolo[2,3-d]pyrimidin-4-amine hydrochloride] | *** (between >0.02 μM and ≤0.5 μM is indicated by three stars (***)) | *** (between >2.9 and ≤3.9 is indicated by three stars (***))
C[C@H](N)Cc1c(F)c2c(NCc3ccncc3F)nc(Cl)nc2n1C.Cl.Cl [Cpd 41, 6-[(2S)-2-aminopropyl]-2-chloro-5-fluoro-N-[(3-fluoropyridin-4-yl)methyl]-7-methyl-7H-pyrrolo[2,3-d]pyrimidin-4-amine dihydrochloride] | *** (between >0.02 μM and ≤0.5 μM is indicated by three stars (***)) | ***** (>4.9 is indicated by five stars (*****))
